In US20150065421A1, “BASAL INSULIN THERAPY” (SANOFI, priority 2012, published 2015):

Test system: people at high risk for vascular disease with either IFG, IGT, or early type 2 diabetes
Assay: ORIGIN trial: microvascular outcomes
Assay type: in vivo, human
Text: The composite microvascular outcome will be met by the development of any of the following: • Doubling of serum creatinine from study baseline (screening value) • Albuminuria progression, defined as a change from normoalbuminuria to either microalbuminuria or clinical proteinuria, or from microalbuminuria to clinical proteinuria using the definitions in the attached table.
• Requirement for renal replacement therapy (eg, dialysis, renal transplant), or death due to renal failure • Use of retinal photocoagulation or vitrectomy for diabetic retinopathy, including macular edema
There were 2 co-primary composite CV outcomes. The first was CV death, non-fatal MI or non-fatal stroke, and the second was a composite of any of these events or a revascularization procedure or hospitalization for heart failure. Secondary outcomes included a composite microvascular outcome comprising a doubling of serum creatinine from baseline, progression of albuminuria category from normoalbuminuria or microalbuminuria to microalbuminuria or overt nephropathy, renal replacement therapy, renal death, retinal photocoagulation or vitrectomy for retinopathy. They also included new type 2 diabetes developing by the time of the 1st post-trial oral glucose tolerance test in participants without baseline diabetes, and all-cause mortality. Other outcomes included incident cancers, CV hospitalizations, and angina. Cardiovascular and cancer outcomes were reviewed by adjudicators masked to treatment allocation. Episodes of hypoglycaemia since the prior visit were recorded at each visit. Symptomatic hypoglycemia was classified as confirmed if a concomitant recorded capillary glucose level was <3 mmol/L (54 mg/dL). Severe hypoglycemia was defined as hypoglycemia that required assistance plus either prompt recovery with glucose or glucagon or a documented capillary glucose ≦2.0 (36 mg/dL). New diabetes was diagnosed if 2 consecutive FPG levels within a 4-month period were ≧7 mM (126 mg/dL) during the trial; a diagnosis of diabetes was made by a physician and a pharmacologic antidiabetic agent was being taken and there was evidence of either a FPG ≧7 mM (126 mg/dL) or any glucose value ≧11.1 mM (200 mg/dL); either 1 or more capillary glucose levels were ≧11.1 mM (200 mg/dl) and a lab-measured FPG was ≧7 mmol/l (126 mg/dl) or a lab measured random glucose level was ≧11.1 mM (200 mg/dl) during down-titration of glargine insulin; or any FPG was ≧7 mM (126 mg/dl) or 2 hour plasma glucose was ≧11.1 mM (200 mg/dl) during the first oral glucose tolerance test.
The microvascular outcome was a composite of: laser surgery or vitrectomy or blindness for diabetic retinopathy; development of renal death or the need for renal replacement treatment (dialysis or transplantation); doubling of serum creatinine; or progression from lesser to greater severity of microalbuminuria. The last 2 components are laboratory-based—the others are “clinical” microvascular outcomes.

[1] = patients with a history of atrial fibrillation at baseline

(Gly A21) Arg (B31) Arg (B32) human insulin [insulin glargine]
Albumin Prog, N (%) (glargine group): 1154
Albumin Prog, Rate (glargine group): 3.3
Clin Microvasc, N (%) (glargine group): 190
Clin Microvasc, Rate (glargine group): 0.5
Double Cr, N (%) (glargine group): 94
Double Cr, Rate (glargine group): 0.25
Laser/Vitrect, N (%) (glargine group): 79
Laser/Vitrect, Rate (glargine group): 0.22
Microvascular, N (%) (glargine group): 1280
Microvascular, Rate (glargine group): 3.7
Renal Failure, N (%) (glargine group): 36
Renal Failure, Rate (glargine group): 0.1
Laser/Vitrect, HR (95% CI) (glargine vs standard, P 0.016): 0.59 (0.38, 0.91)
Clin Microvasc, HR (95% CI) (glargine vs standard, P 0.038): 0.74 (0.56, 0.98)
Microvascular, HR (95% CI) (glargine vs standard, P 0.066): 0.90 (0.81, 1.01)
Double Cr, HR (95% CI) (glargine vs standard, P 0.09): 0.70 (0.46, 1.06)
Albumin Prog, HR (95% CI) (glargine vs standard, P 0.17): 0.92 (0.82, 1.04)
Renal Failure, HR (95% CI) (glargine vs standard, P 0.46): 1.27 (0.67, 2.39)
microvascular outcomes, difference to standard care (insulin glargine vs standard care): no statistically significant difference
RR for Clinical Microvascular outcomes (non-laboratory-based) [1]: 0.42 (0.19-0.91)
RR for microvascular outcome [1]: 0.74 (0.55-0.98)
relative risk (RR) for microvascular outcome (patients with baseline A1c<6.4%, not significant): 1.08
relative risk (RR) for microvascular outcome (patients with baseline A1c≧6.4%, statistically significant): 0.88 (0.79-0.98)
